Experimental data: patent publication US9175036B2, “Antimicrobial water treatment membranes and production thereof” (BEN-GURION UNVERSITY OF THE NEGEV RESEARCH AND DEVELOPMENT …, priority 2009, dated 2015)
In brackets after ≈: the same amount, converted by molar mass. Where two headings read alike, the source gives them in different places. Square brackets hold non-standard residues; d marks the D form. Peptide text beside a SMILES is read from it. Ahx = NCCCCCC(=O)O

Tested on: Enterobacter
Assay type: cell-based
Protocol: The IC50 is determined by an essay, suitable for the specific film-forming microorganism in question. For example, in the present invention, the Enterobacter assay, which is described in detail in the methods section below, was used to determine the antimicrobial activities of the tested peptides.
Quantitative Biofilm Growth Inhibition Assay in a 96-Wells Microtiter Plate:
Enterobacter culture (50 ml) was grown in tryptic soy broth media (TBS; prepared according to manufacturer instructions) overnight at 25° C. On the next day the turbidity of the culture was measured at 600 nm (Biomate 5 UV-Vis spectrophotometer, Thermo Fisher Scientific, Waltham, Mass.) and, if necessary, TSB was added to dilute the culture until the OD was 1.
Then 96 wells polystyrene microtiter plates (flat bottom, transparent, Becton Dickinson, Franklin Lakes, New-Jersey) were filled as following: Negative control wells (without bacteria) were filled with 125 μl TSB media and 25 μl of DDW:PBS1:1 buffer solution; Positive control wells (without peptide solution) were filled with 110 μl TSB media, 25 μl of DDW:PBS1:1 buffer solution and 15 μl of Enterobacter culture solution; Wells that contained AMPs at different concentrations were filled with 110 μl TSB media, 25 μl of peptide solution and 15 μl of Enterobacter culture solution.
The plates were incubated at 25° C. overnight. On the next day the plates were gently rinsed 5 times with distilled water to remove the planktonic bacteria and then dried at room temperature for 10 minutes. Then the biofilm on the walls of the wells was dyed by adding 200 μl, of 3% crystal violet (CV) to the wells. After 15 minutes at room temperature, the plates were gently rinsed 5 times with distilled water to remove excess dye and dried at room temperature for 10 minutes (Djordjevic, Wiedmann & McLandsborough 2002). The dry plates were filled with 200 μl ethanol, covered and gently agitated (Duomax 1030 rocking platform shaker, Heidolph, Kelheim, Germany) for 1 hour. The absorbance of extracted color was measured in a plate reading spectrophotometer (Infinite M200, Tecan, Mannedorf, Switzerland) at 595 nm.
The effect of linking the arm to a peptide, on the antimicrobial activity of the peptides was assessed by measuring the peptide activity in 96-microtitter plates in solution and comparing to activities of the normal peptides. Experiments were performed in water and in 3% NaCl solution. Table 6 presents the antimicrobial activity (IC50) of peptide-arm systems, in water and in 3% NaCl solution. Values were extracted from dose-response curves.
Different concentration solutions of peptides, bought or prepared as detailed in the methods section above, were prepared by diluting a stock solution with 1% ACN. Stock solution was prepared by dissolving water soluble peptides in DDW:PBS1:1. PBS (pH=7.4) was prepared by adding to 800 ml DDW, 8 grams NaCl, 0.2 grams KCl, 1.44 grams Na2HPO4 and 0.2 grams KH2PO4.
To evaluate whether attachment of a tether to the AMPs has an effect on the inhibitory potency, a PEGylated peptide (HS-PEG-D-Modelin-1) was prepared, and its inhibitory potency compared to that of the ‘normal’ peptide All-D-Modelin-1. Peptides were diluted in 2-fold serial dilutions, and the antibacterial activity of the peptides was determined in sterile 96-multititter plates.

[1] = peptide in solution, water, 96-microtitter plates, values extracted from dose-response curves

SMILES	IC50 Normal conditions [µg/mL]	IC50 in 3% Aqueous NaCl [µg/mL]	further results
CC(C)C[C@H](NC(=O)[C@H](CCCCN)NC(=O)[C@H](Cc1ccccc1)NC(=O)[C@H](CC(C)C)NC(=O)[C@H](CC(C)C)NC(=O)CNC(=O)[C@H](CCCCN)NC(=O)[C@H](CC(C)C)NC(=O)[C@H](CCCCN)NC(=O)[C@@H]1CCCN1C(=O)[C@H](CC(C)C)NC(=O)[C@H](CC(C)C)NC(=O)[C@H](CC(C)C)NC(=O)[C@H](CCCCN)NC(=O)[C@H](CC(C)C)NC(=O)[C@H](CC(C)C)NC(=O)[C@H](CCCCN)NC(=O)[C@H](Cc1ccc(O)cc1)NC(=O)CNC(=O)CNC(=O)CNC(=O)CNC(=O)[C@@H](N)CS)C(N)=O [CG4-L^6P^9G^13F^16] (H-CGGGGYKLLKLLLPKLKGLLFKL-NH2; N-terminus assumed)	110 (≈ 44.5 µM)	>300	
N=C(N)NCCC[C@H](NC(=O)CCCCCNC(=O)[C@@H](N)CS)C(=O)N[C@@H](CCCNC(=N)N)C(=O)N[C@@H](Cc1c[nH]c2ccccc12)C(=O)N[C@@H](Cc1c[nH]c2ccccc12)C(=O)N[C@@H](CCCNC(=N)N)C(=O)N[C@@H](Cc1ccccc1)C(N)=O [CX-Hexapeptide-4, CXRRWWRF-NH2] (H-C[Ahx]RRWWRF-NH2; N-terminus assumed)	80 (≈ 65.5 µM)	>300	
CC(C)C[C@H](NC(=O)[C@H](CCCCN)NC(=O)CCCCCNC(=O)[C@@H](N)CS)C(=O)N[C@@H](Cc1c[nH]c2ccccc12)C(=O)N[C@@H](CCCCN)C(=O)N[C@@H](CCCCN)C(=O)N[C@@H](Cc1c[nH]c2ccccc12)C(=O)N[C@@H](C)C(=O)N[C@@H](CCCCN)C(=O)N[C@@H](CCCCN)C(=O)N[C@@H](Cc1c[nH]c2ccccc12)C(=O)N[C@@H](CC(C)C)C(=O)N[C@@H](CCCCN)C(=O)N[C@@H](CC(C)C)C(=O)N[C@@H](Cc1c[nH]c2ccccc12)C(=O)N[C@@H](CCCCN)C(=O)N[C@@H](C)C(=O)N[C@@H](Cc1c[nH]c2ccccc12)C(=O)O [CX-Modelin-1, CXKLWKKWAKKWLKLWKAW] (H-C[Ahx]KLWKKWAKKWLKLWKAW-OH; N-terminus assumed)	60 (≈ 23.6 µM)		
CC[C@H](C)[C@H](NC(=O)[C@H](CCCNC(=N)N)NC(=O)CNC(=O)[C@H](CC(C)C)NC(=O)[C@H](Cc1ccccc1)NC(=O)[C@H](CCCCN)NC(=O)[C@H](CO)NC(=O)[C@H](Cc1ccccc1)NC(=O)[C@H](Cc1c[nH]c2ccccc12)NC(=O)[C@H](CCC(N)=O)NC(=O)[C@@H](NC(=O)[C@H](Cc1ccccc1)NC(=O)CCCCCNC(=O)[C@@H](N)CS)C(C)C)C(=O)N[C@@H](CC(C)C)C(N)=O [CX-Temporin-L, CXFVQWFSKFLGRIL-NH2] (H-C[Ahx]FVQWFSKFLGRIL-NH2)			IC50 Normal conditions [1]: >300 µg/mL
CC(C)C[C@@H](NC(=O)[C@H](N)CCCCN)C(=O)N[C@H](Cc1c[nH]c2ccccc12)C(=O)N[C@H](CCCCN)C(=O)N[C@H](CCCCN)C(=O)N[C@H](Cc1c[nH]c2ccccc12)C(=O)N[C@H](C)C(=O)N[C@H](CCCCN)C(=O)N[C@H](CCCCN)C(=O)N[C@H](Cc1c[nH]c2ccccc12)C(=O)N[C@H](CC(C)C)C(=O)N[C@H](CCCCN)C(=O)N[C@H](CC(C)C)C(=O)N[C@H](Cc1c[nH]c2ccccc12)C(=O)N[C@H](CCCCN)C(=O)N[C@H](C)C(=O)N[C@H](Cc1c[nH]c2ccccc12)C(=O)O [D-Modelin-1, KLWKKWAKKWLKLWKAW]			IC50 (repeated assay, D-Modelin-1 (crude) and HS-PEG-D-Modelin-1 prepared in the same synthesis): 3 µg/mL (≈ 1.29 µM)
N=C(N)NCCC[C@H](NC(=O)[C@H](Cc1c[nH]c2ccccc12)NC(=O)[C@H](Cc1c[nH]c2ccccc12)NC(=O)[C@H](CCCNC(=N)N)NC(=O)[C@@H](N)CCCNC(=N)N)C(=O)N[C@@H](Cc1ccccc1)C(N)=O [Hexapeptide-4, RRWWRF-NH2, reference compound] (H-RRWWRF-NH2; N-terminus assumed)	60 (≈ 59.7 µM)	100 (≈ 99.5 µM)	
CC(C)C[C@H](NC(=O)[C@H](CCCCN)NC(=O)[C@H](Cc1ccccc1)NC(=O)[C@H](CC(C)C)NC(=O)[C@H](CC(C)C)NC(=O)CNC(=O)[C@H](CCCCN)NC(=O)[C@H](CC(C)C)NC(=O)[C@H](CCCCN)NC(=O)[C@@H]1CCCN1C(=O)[C@H](CC(C)C)NC(=O)[C@H](CC(C)C)NC(=O)[C@H](CC(C)C)NC(=O)[C@H](CCCCN)NC(=O)[C@H](CC(C)C)NC(=O)[C@H](CC(C)C)NC(=O)[C@H](CCCCN)NC(=O)[C@@H](N)Cc1ccc(O)cc1)C(N)=O [L^6P^9G^13F^16, reference compound] (H-YKLLKLLLPKLKGLLFKL-NH2; N-terminus and C-terminus assumed)	40 (≈ 18.7 µM)	300 (≈ 140 µM)	
CC(C)C[C@H](NC(=O)[C@H](CCCCN)NC(=O)[C@H](CC(C)C)NC(=O)[C@H](Cc1c[nH]c2ccccc12)NC(=O)[C@H](CCCCN)NC(=O)[C@H](CCCCN)NC(=O)[C@H](C)NC(=O)[C@H](Cc1c[nH]c2ccccc12)NC(=O)[C@H](CCCCN)NC(=O)[C@H](CCCCN)NC(=O)[C@H](Cc1c[nH]c2ccccc12)NC(=O)[C@H](CC(C)C)NC(=O)[C@@H](N)CCCCN)C(=O)N[C@@H](Cc1c[nH]c2ccccc12)C(=O)N[C@@H](CCCCN)C(=O)N[C@@H](C)C(=O)N[C@@H](Cc1c[nH]c2ccccc12)C(=O)O [Modelin-1, KLWKKWAKKWLKLWKAW, reference compound]			IC50 in 3% Aqueous NaCl (peptide in solution, 3% NaCl solution, 96-microtitter plates, values extracted from dose-response curves): 100 µg/mL (≈ 43 µM); IC50 Normal conditions [1]: 20 µg/mL (≈ 8.59 µM)
CC(C)C[C@H](NC(=O)[C@H](CCCCN)NC(=O)CNC(=O)CNC(=O)CNC(=O)CN)C(=O)N[C@@H](Cc1c[nH]c2ccccc12)C(=O)N[C@@H](CCCCN)C(=O)N[C@@H](CCCCN)C(=O)N[C@@H](Cc1c[nH]c2ccccc12)C(=O)N[C@@H](C)C(=O)N[C@@H](CCCCN)C(=O)N[C@@H](CCCCN)C(=O)N[C@@H](Cc1c[nH]c2ccccc12)C(=O)N[C@@H](CC(C)C)C(=O)N[C@@H](CCCCN)C(=O)N[C@@H](CC(C)C)C(=O)N[C@@H](Cc1c[nH]c2ccccc12)C(=O)N[C@@H](CCCCN)C(=O)N[C@@H](C)C(=O)N[C@@H](Cc1c[nH]c2ccccc12)C(=O)O [Peptide G4-Modelin-1] (H-GGGGKLWKKWAKKWLKLWKAW-OH; N-terminus and C-terminus assumed)	70 (≈ 27.4 µM)	120 (≈ 46.9 µM)	
